The source of these data is US8097585B2, “Methods of treating inflammation by administration of heme oxygenase-1 and products of heme degradation” (priority 2002, dated 2012).

The structures appear in SMILES notation. Counter-ions that a name gives are not always drawn.

For test [1], the system named is IL-2 receptor α-chain (IL-2Rα, CD25). Briefly: Flow cytometric analysis of IL-2R (CD25) expression. Format: cell-based, mouse. The conditions noted are these: biliverdin 100 μM, anti-CD3 mAb stimulated, 6 and 24 hours. The procedure: Flow cytometric analysis (IL-2R expression). B6AF1 leukocytes (5×10^5 cells/well) were stimulated with anti-CD3 mAb (1 μg/ml) and cultured in 96 well round bottom plates with or without biliverdin (100 μM). Six and 24 hours after stimulation, cells were harvested, washed, and stained with fluorochrome conjugated isotype control Abs, or specific anti-CD4 and/or anti-CD25 mAbs (all antibodies obtained from BD Pharmingen). Non-stimulated naïve leukocytes were used as a negative control. Following Abs staining, cell samples were analyzed using a FACSort™ flow cytometer and CellQuest™ software (BD Biosciences, Palo Alto, Calif.). Ten thousand CD4+ T cells were acquired for each sample and their CD25 expression was examined. The experiment was repeated 3 times.
For orientation: In flow cytometry, cells or beads pass a laser one at a time.

Test [2] deals with TNF-alpha. In words: Endotoxic shock (LPS) model, serum TNF-alpha. Format: in vivo, Sprague-Dawley rats. The settings on record: biliverdin i.p. […] 17 h and 1 h prior to and 8 h after LPS 3 mg/kg i.v. The procedure:
Treatment Protocol. Endotoxin (lipopolysaccharide/LPS; Sigma; E. coli serotype 0128:B7; 3 mg/kg, i.v.) was administered to male Sprague-Dawley, resulting in an acute non-lethal inflammation. In rats, a sublethal dose of LPS results in a moderate lung inflammation characterized by neutrophil accumulation and protein accumulation in the airspace, both markers of lung inflammation. The pro-inflammatory cytokine TNF-alpha increases very rapidly in the serum, peaking by 60-90 minutes. This is followed by increases in IL-10, a prototypical anti-inflammatory cytokine that peaks 8-12 hr later.
Administration of Biliverdin. Biliverdin (Frontier Scientific: prepared in PBS following solubilization in NaOH) was administered i.p. at […] 17 hours prior to, one hour prior to, and eight hours after LPS administration.
Bronchoalveolar Lavage. A bronchoalveolar lavage (BAL) was performed 24 hours after LPS administration. Serum cytokines were measured using commercially available ELISA kits (R&D Systems Inc.) per the manufacturer's instructions. Total protein was determined via a standard Bradford assay based on a standard curve. […] Total cell count was determined as well as differential analysis of cell type and morphology via Diff-Quik® Fixative (American Scientific Products) staining of a sample of the lavagate.

The test system of test [3] is IL-6. Briefly: Real time RT-PCR of graft muscularis after SITx, IL-6. It counts as in vivo, LEW rats. The protocol:
Small Intestinal Transplantation. Orthotopic small intestinal transplantation (SITx) was performed in syngeneic Lewis rats. SITx with caval drainage was performed using a previously described procedure (Murase et al., in Handbook of Animal Models in Transplantation Research, Cramer et al., Eds. CRC Press, Boca Raton, Fla., pp. 203-213 (1994)). […] The graft was perfused via the aortic segment with 5 ml chilled Ringer's lactate solution, and the intestinal lumen was irrigated with 20 ml of cold saline solution containing 0.5% neomycin-sulfate (Sigma, St. Louis, Mo.). End-to-side anastomoses between the graft aorta and the recipient infrarenal aorta, and between the graft portal vein and recipient vena cava, were performed with 10-0 Novafil™ suture. The cold ischemic time was 1 hour. The entire recipient intestine was removed and the enteric continuity was restored by proximal and distal end-to-end intestinal anastomoses. Recipient animals were given 20 mg/day prophylactic cefamandole nafate for 3 postoperative days. Transplanted recipients were given water 3 hours after surgery, and were fed 24 hours after surgery.
SYBR green real time RT-PCR. The effects of administration of biliverdin on transplant-induced pro-inflammatory and anti-inflammatory gene expression were assessed in muscularis extracts by RT-PCR Biliverdin ([…], i.p.) was administered to both the donor and recipient three hours preoperatively. The muscularis externae was collected from normal intestine and transplanted grafts 4 hours postoperatively and snap frozen in liquid nitrogen. […] Equal aliquots (5 μg) of total RNA from each sample were quantified by spectrophotometry (wavelength […]) and aliquoted at a concentration of 40 ng/μl. Peak mRNA expression was quantified in duplicate by SYBR Green two-step, real-time RT-PCR. […] Real-time PCR data were plotted as the ΔRn fluorescence signal versus the cycle number. […] Quantification of mRNA expression was normalized to GAPDH and calculated relative to control using the comparative CT method (Schmittgen et al., J. Biochem. Biophys. Methods 46(1-2):69-8, 2000). […]
For orientation: Quantitative PCR measures a nucleic acid by following its amplification.

A short description of test [4]: Total antioxidant capacity of graft, SITx with 6 hours preservation. It counts as in vivo, LEW rats. The text has this:
Antioxidant capacity after BV treatment. the total antioxidant capacity or antioxidant power within the graft specimens was quantitatively measured. Antioxidant levels in the graft were detected using Total Antioxidant Power® (Oxford Biomedical Research, Oxford, Mich.), according to the manufacturer's instructions. In this procedure, the evaluation of the antioxidant level in a sample is detected by evaluation of Cu^+ derived from Cu^++ by the combined action of all antioxidants present in the sample.

In the case of `C=CC1=C(C)/C(=C/C2=NC(=C\c3[nH]c(/C=C4\NC(=O)C(C)=C4C=C)c(C)c3CCC(=O)O)/C(CCC(=O)O)=C2C)NC1=O` [biliverdin, biliverdin dihydrochloride], in test [1], the “expression of IL-2Rα (CD25) on splenic CD4+ T cells” value is recorded as “did not affect”. Besides, the “levels of LPS-induced TNF-alpha” value in test [2] is listed as “reduced”. Further, in test [3] (BV 50 mmol/kg i.p. donor and recipient, 4 hours, versus saline-treated graft), the “reduction of IL-6 mRNA expression” value was found to be 24%. In test [3] (BV treatment of unoperated animals), the “basal mRNA expression of any of the cytokines” value is on record as “did not alter”. Moreover, in test [4], the “antioxidant capacity of the transplanted intestine” value was “increased the antioxidant capacity of the transplanted intestine to normal levels”.
